This note sets out measurements from patent publication US20080286350A1, “Formulation of Multivalent Antibody Constructs and Use of Same for Cancer Therapy” (BC CANCER AGENCY, priority 2004, published 2008).

What all share (format): cell-based
The subject of one series is Ramos cells. Put plainly: MTT cell viability assay, Ramos cells, 48 hours (Example 1). On the technique in general: Tetrazolium assays rely on reduction of a dye to a coloured formazan, in cell work by metabolically active cells.
The test system of series [1] is phosphorylated p65NF-κB, Bcl-xL, Bcl-2, Bax, p-Akt. As to the kind of experiment: Western blot analyses of cell survival molecules, Z-138. To be noted: 15 μg/mL, 3 days. On the procedure: (§1) FIGS. 6(a)-6(b) are bar graphs and Western blot analyses showing modulation of cancer cell survival pathways by multivalent liposomal Ab constructs. […] The concentration of trastuzumab was 200 μg/mL. (b) Representative cell cycle analysis, DAPI staining and Western blot analyses of Z-138 cells after exposure to free or liposomal rituximab for 3 days. The concentration of rituximab was 15 μg/mL. […] For DAPI staining, yellow arrows indicate apoptotic morphology of DNA condensation or fragmentation associated with Z-138 cells exposed to various treatments. The scale bar is equivalent to 50 μm, and all images are shown at the same magnification.
The following antibodies were used in this study: anti-p-HER2-Tyr-1248/Tyr-1173; anti-HER2; anti-p-Akt-Ser-473 and anti-Akt (all were rabbit polyclonal, New England Biolabs) and anti-human β-actin (mouse monoclonal, Sigma). The secondary antibody was horseradish peroxidase-conjugated anti-mouse or anti-rabbit IgG (Promega, Madison, Wis.). Proteins were detected by enhanced chemiluminescence (Amersham Pharmacia Biotech, Buckinghamshire, England), and visualized after exposure to Kodak autoradiography film. Equivalent amounts of protein (30 μg/lane determined by Bradford assay) were resolved by 12% SDS-polyacrylamide pre-made gels (Bio-Rad).
For orientation: Immunoblotting shows a protein as a band on a membrane.

Series [2] has as its system Z-138 (mantle cell lymphoma) cell line. Put plainly: Cell viability assay, fraction of cells affected (fa), Z-138. On the procedure:
(§2) FIGS. 5(a)-(d) are a series of bar graphs summarizing results for in vitro treatment of cancer cell lines with free bivalent or liposomal multivalent Ab constructs. […] Fraction of cells affected (fa) was calculated as follows: fa=1−fu, where fu was the fraction of remaining viable cells calculated as the ratio of the absorbance readings from the MTT assay for treated and untreated groups. Data represent mean ±S.E.M. from 3 independent experiments. * and ^# denote P<0.05 as compared to the free Ab treatment (ANOVA and Scheffe test for post-hoc comparisons).
(§3) Cells (3,500 cells/well for LCC6^HER2 and MCF7^HER2, and 20-50,000 cells/well for Ramos and 20,000 cells/well for Z-138) were seeded in 96-well plates. In the case of LCC6^HER2 and MCF7^HER2 cells, treatment was added after an overnight incubation to allow cell adherence to plates. In the case of Ramos and Z-138 cells, treatment was added on the same day after seeding. Cell viability was determined using 3-(4,5-dimethylthiazol-2-yl)-2,5-diphenyltetrazolium bromide (MTT) as previously described ^28 or Alamar Blue added in 10 μL/well with an 18-h incubation before reading fluorescence in a Fluorstar (v 1.2) plate reader (BMG Labtechnologies, Offenburg, Germany).
(§4) For rituximab, testing was conducted in a Burkitt's lymphoma cell line, Ramos (FIG. 5c), and a mantle cell lymphoma cell line, Z-138 (FIG. 5d).

The test system of series [3] is Ramos (Burkitt's lymphoma) cell line. As to the kind of experiment: Cell viability assay, fraction of cells affected (fa), Ramos. As for the experimental part:
as §2, §3, §4

In another series the test system is Z-138 cells. Put plainly: Cell cycle analysis and DAPI staining, Z-138. To be noted: 15 μg/mL, 3 days. As for the experimental part: as §1
Cells were harvested after treatment and fixed in cold 70% ethanol adjusted to 1×10^6 cells/mL and 2×10^6 cells/mL for cell cycle analyses and DAPI staining, respectively. In the case of cell cycle analyses, cells were stained in propidium iodide (PI) buffer [50 μg/mL PI, 1 mg/mL RNase A (Sigma), and 0.1% Triton X-100 in PBS] at 37° C. for 15 min as previously described ^28. Cells were then chilled on ice for 1 h and analyzed on a FACSCalibur flow cytometer (Becton Dickinson, San Jose, Calif.) with 20,000 events collected for each sample. In the case of DAPI staining, cells were incubated in DAPI staining solution (0.1 μg/mL DAPI, 1 mg/mL RNase A and 0.1% Triton X-100 in PBS) for 15 min, followed by chilling on ice for 30 min. Cells were cytospun onto a glass slide, and viewed with a Leica DMLB fluorescence microscope. Images were captured with a Retiga 1300i digital camera and analyzed by the computer software OpenLab 3.5.1 (Improvision).

The test system of a further series is caspase 3/7. As to the kind of experiment: Caspase 3/7 activity, Z-138. To be noted: Z-138 cells, data not shown.
The mark [4] stands for this setting: 3 days, 10% serum, range of Ab concentrations tested.

For the substance “Lipo-RTX 48: Rituximab bound to liposomes at antibody-to-lipid ratio of 48 μg antibody/μmol lipid”, the “potency / cytotoxic activity on cell viability (MTT assay), in words” value (“potency / cytotoxic activity” below) in the series on Ramos cells is given as “superior potency to free Rituximab”.
Consider “liposomal rituximab: rituximab conjugated to DSPC/CHOL/DSPE-PEG2000/DSPE-PEG2000-MAL liposomes, Ab-to-lipid ratio 50-70 μg/μmol”, for which, in series [1], the “expression levels of phosphorylated p65NF-κB and downstream Bcl-xL” value (“expression levels” below) is reported as “reduced”. Further, the “activity (fa) compared to free rituximab, in words” value is reported as “significantly more effective than the free, bivalent form” in series [2] (setting [4]) and “significantly more effective than the free, bivalent form” in series [3] (setting [4]). Moreover, the “activity (fa) compared to cross-linked rituximab, in words” value in series [2] (P>0.05) was “not significantly different from that of cross-linked rituximab”. For the same substance, in the series on Z-138 cells, the “apoptosis: percentage of cells in sub-G1/G0 phase, morphology (DAPI)” value (shortened to “apoptosis: percentage … morphology (DAPI)”) is on record as “increases”. Further, in the series on caspase 3/7, the “increase in caspase 3/7 activity” value is recorded as “not”.
As to “cross-linked rituximab: Free rituximab cross-linked by an anti-human IgG F(ab)′ (goat F(ab′)2 anti-human IgG, 50 μg/mL), included as a control”, in series [1], the “expression level of p-Akt” value is recorded as “capable of reducing”; the “expression levels” value is recorded as “reduced”. In series [3] (Ab concentrations above 10 μg/mL, P<0.05), the “activity (fa) compared to liposomal rituximab, in words” value was “more effective than liposomal rituximab”. In the series with Z-138 cells, the “apoptosis: percentage … morphology (DAPI)” value was “increases”.
As to “Lipo-RTX 59: Rituximab bound to liposomes at antibody-to-lipid ratio of 59 μg antibody/μmol lipid”, the “potency / cytotoxic activity” value in the series with Ramos cells is “superior potency to free Rituximab”.
Turning to “free rituximab: a therapeutic antibody targeting CD20; anti CD20 monoclonal antibody”, the “expression levels” value in series [1] was “not different from untreated cells”. Further, in the series on Ramos cells, the “potency / cytotoxic activity” value was “minimal or no cytotoxic activity”. The “apoptosis: percentage … morphology (DAPI)” value with Z-138 cells is on record as “not different from untreated cells”.
